Values belong to the molecule of their own block, whether it stands above or below them. Numbered stars: 1 amine (or outer) side, 2 acyl side, 3 side chain; on linkers, the order of the positions; unused ones are H or OH. Square brackets hold non-standard residues; d marks the D form. Side chains are listed from the residue outwards. Peptide text beside a SMILES is read from it. * marks the point of attachment. Biotin = O=C1N[C@H]2[C@H](CS[C@H]2CCCCC(=O)*)N1; γGlu = O=C(O)[C@H](CCC(=O)[*:2])N[*:1]; Palmitoyl = CCCCCCCCCCCCCCCC(=O)*; PhLac = O=C(O)[C@@H](O)Cc1ccccc1; PEG4 = NCCOCCOCCOCCOCCC(=O)O
Tests used:
GCGR [1] = target: T1, GCGR (Homo sapiens, UniProt P47871); experiment: GCGR cAMP accumulation, antagonist mode, native and biotinylated peptides; assay type: cell-based; settings: HTRF, HEK Freestyle cells, arithmetic mean, n=3
T1 sequence (P47871 26-477): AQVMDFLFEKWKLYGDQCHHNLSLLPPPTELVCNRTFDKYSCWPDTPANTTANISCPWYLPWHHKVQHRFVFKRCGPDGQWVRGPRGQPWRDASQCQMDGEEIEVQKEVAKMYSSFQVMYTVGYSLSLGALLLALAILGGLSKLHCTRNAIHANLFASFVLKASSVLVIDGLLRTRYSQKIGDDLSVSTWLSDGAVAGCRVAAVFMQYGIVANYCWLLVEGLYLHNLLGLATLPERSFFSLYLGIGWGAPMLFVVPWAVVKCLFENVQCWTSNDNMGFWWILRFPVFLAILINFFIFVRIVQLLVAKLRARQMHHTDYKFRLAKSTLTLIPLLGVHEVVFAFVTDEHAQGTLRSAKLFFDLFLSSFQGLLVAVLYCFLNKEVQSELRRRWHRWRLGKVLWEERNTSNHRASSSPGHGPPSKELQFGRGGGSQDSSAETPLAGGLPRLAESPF
Procedure: HEK Freestyle cells (ThermoFisher Scientific, #R79007) seeded in suspension at a density of 250,000 cells/mL were transiently transfected with indicated receptor constructs using Fugene-6 reagent (Promega, #E2691). After 48 h, cells were pelleted and resuspended in assay buffer (DMEM, #Gibco 31053) containing 0.1% casein. Cells were then added at 1000 cells/well to 384-well white microplates (Costar, #3570) containing a range of agonist concentrations prepared via acoustic direct dilution in assay buffer containing 250 μM IBMX (total reaction volume of 20 μL), followed by incubation at 37 °C for 30 min. Cells were then lysed via sequential addition of d2-labeled cAMP competitor conjugate and cryptate-conjugated detection antibody (Revity, #62AM4PEC), then incubated for 1 h at room temperature with subsequent quantification of time-resolved fluorescence resonance energy transfer using an Envision plate reader and calibration to external synthetic cAMP standards in a parallel processed plate. Normalized percent values were fit to the 4-parameter logistic model using GraphPad Prism 10.1.2.
Figure S1. Enrichment of GCGR using biotinylated peptide ligands and bottom-up proteomic analysis of C-tail phosphorylation. A-B) GCGR cAMP accumulation was measured in (A) agonist mode and (B) antagonist mode using native and biotinylated peptides. Summary statistics for pharmacological […]

GCGR [2] = target: T1, GCGR; experiment: GCGR cAMP accumulation, agonist mode, native and biotinylated peptides; assay type: cell-based; settings: read-out: cAMP Emax Mean
[3] = target: GLP-1R 3S→A (S442A/S444A/S445A) (Homo sapiens, UniProt P43220, S442A/S444A/S445A); experiment: cell-based; settings: read-out: cAMP Emax Mean
Sequence of GLP-1R 3S→A (S442A/S444A/S445A) (P43220 24-463 S442A/S444A/S445A): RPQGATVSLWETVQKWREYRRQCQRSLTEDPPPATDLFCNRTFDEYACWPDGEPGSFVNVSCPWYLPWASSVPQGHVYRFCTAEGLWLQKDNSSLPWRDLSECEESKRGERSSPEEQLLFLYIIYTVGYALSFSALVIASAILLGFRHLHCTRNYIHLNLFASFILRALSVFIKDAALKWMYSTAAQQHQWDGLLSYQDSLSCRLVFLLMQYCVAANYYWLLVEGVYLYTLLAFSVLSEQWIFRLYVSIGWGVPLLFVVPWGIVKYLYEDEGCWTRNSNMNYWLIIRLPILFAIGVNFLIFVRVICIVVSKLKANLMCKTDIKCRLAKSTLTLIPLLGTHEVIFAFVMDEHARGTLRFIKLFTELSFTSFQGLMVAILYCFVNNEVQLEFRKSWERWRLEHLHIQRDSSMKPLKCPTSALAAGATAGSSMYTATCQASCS

GLP-1R S444A = GLP-1R S444A (Homo sapiens, UniProt P43220, S444A); experiment: cell-based; settings: read-out: cAMP Emax Mean
Sequence of GLP-1R S444A (P43220 24-463 S444A): as the sequence (P43220 24-463 S442A/S444A/S445A) above, with A419S, A422S counted along it

GLP-1R WT = GLP-1R WT (Homo sapiens, UniProt P43220); experiment: cell-based; settings: read-out: cAMP Emax Mean
Sequence of GLP-1R WT (P43220 24-463): as the sequence (P43220 24-463 S442A/S444A/S445A) above, with A419S, A421S, A422S counted along it
Procedure: (§1) Transfection for pharmacology experiments was conducted as previously described using FuGENE 6 (Promega, #E2691). […] Subsequently, 240 μL of room-temperature FuGENE 6 (Promega, #E2691) was added to the medium, mixed by inversion, and allowed to rest at room temperature for 5 min. 40 μg of the plasmid of interest was added to the FuGENE 6 containing medium, mixed by inversion, and allowed to rest at room temperature for 15–20 min.
(§2) HEK Freestyle cells (ThermoFisher Scientific, #R79007) seeded in suspension at a density of 250,000 cells/mL were transiently transfected with indicated receptor constructs using Fugene-6 reagent (Promega, #E2691). […] Cells were then lysed via sequential addition of d2-labeled cAMP competitor conjugate and cryptate-conjugated detection antibody (Revity, #62AM4PEC), then incubated for 1 h at room temperature with subsequent quantification of time-resolved fluorescence resonance energy transfer using an Envision plate reader and calibration to external synthetic cAMP standards in a parallel processed plate.

GLP-1R S445A = GLP-1R S445A (Homo sapiens, UniProt P43220, S445A); experiment: cell-based; settings: read-out: cAMP Emax Mean
Sequence of GLP-1R S445A (P43220 24-463 S445A): as the sequence (P43220 24-463 S442A/S444A/S445A) above, with A419S, A421S counted along it
Procedure: as §1, §2

GLP-1R S442A = GLP-1R S442A (Homo sapiens, UniProt P43220, S442A); experiment: cell-based; settings: read-out: cAMP Emax Mean
Sequence of GLP-1R S442A (P43220 24-463 S442A): as the sequence (P43220 24-463 S442A/S444A/S445A) above, with A421S, A422S counted along it

GLP-1R_TEV_FLAG C-tail = GLP-1R_TEV_FLAG C-tail (Homo sapiens, UniProt P43220); settings: WT GLP-1R_TEV C-tail; 1 μM ligand, 10 min 37 °C, FreeStyle 293 cells, LC-PRM, relative to DMSO
Sequence of GLP-1R_TEV_FLAG C-tail (P43220 24-431 limits assumed): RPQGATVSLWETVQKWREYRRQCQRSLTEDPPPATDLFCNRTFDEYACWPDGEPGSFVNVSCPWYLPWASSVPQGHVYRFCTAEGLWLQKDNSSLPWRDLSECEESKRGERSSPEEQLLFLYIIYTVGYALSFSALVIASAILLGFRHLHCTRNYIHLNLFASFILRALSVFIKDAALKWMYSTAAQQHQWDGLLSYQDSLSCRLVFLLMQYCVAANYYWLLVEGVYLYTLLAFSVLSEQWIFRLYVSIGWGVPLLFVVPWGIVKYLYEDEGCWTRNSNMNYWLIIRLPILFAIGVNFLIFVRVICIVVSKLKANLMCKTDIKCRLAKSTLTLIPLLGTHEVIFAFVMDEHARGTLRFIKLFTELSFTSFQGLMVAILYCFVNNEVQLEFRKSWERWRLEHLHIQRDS

Emax (GCGR [1]): 120%
SMILES: CSCC[C@H](NC(=O)[C@H](CC(C)C)NC(=O)[C@H](Cc1c[nH]c2ccccc12)NC(=O)[C@H](CCC(N)=O)NC(=O)[C@@H](NC(=O)[C@H](Cc1ccccc1)NC(=O)[C@H](CC(=O)O)NC(=O)[C@H](CCC(N)=O)NC(=O)[C@H](C)NC(=O)[C@H](CCCNC(=N)N)NC(=O)[C@H](CCCNC(=N)N)NC(=O)[C@H](CO)NC(=O)[C@H](CC(=O)O)NC(=O)[C@H](CC(C)C)NC(=O)[C@H](Cc1ccc(O)cc1)NC(=O)[C@H](CCCCN)NC(=O)[C@H](CO)NC(=O)[C@H](CCCCNC(=O)CCOCCOCCOCCOCCNC(=O)CCCC[C@@H]1SC[C@@H]2NC(=O)N[C@@H]21)NC(=O)[C@H](CC(=O)O)NC(=O)[C@H](CO)NC(=O)[C@@H](NC(=O)[C@@H](O)Cc1ccccc1)[C@@H](C)O)C(C)C)C(=O)N[C@@H](CC(=O)O)C(=O)N[C@H](C(N)=O)[C@@H](C)O [Biotin-GCGR antagonist] (H-[PhLac]TSDK([PEG4-Biotin])SKYLDSRRAQDFVQWLMDT-NH2)

SMILES: CC[C@H](C)[C@H](NC(=O)[C@H](Cc1ccccc1)NC(=O)[C@@H](NC(=O)CNC(=O)[C@H](CCC(N)=O)NC(=O)C(C)(C)NC(=O)[C@@H](N)Cc1c[nH]cn1)[C@@H](C)O)C(=O)N[C@@H](CO)C(=O)N[C@@H](CC(=O)O)C(=O)N[C@@H](CCCCNC(=O)CCOCCOCCOCCOCCNC(=O)CCCC[C@@H]1SC[C@@H]2NC(=O)N[C@@H]21)C(=O)N[C@@H](CO)C(=O)N[C@@H](CCCCN)C(=O)N[C@@H](Cc1ccc(O)cc1)C(=O)N[C@@H](CC(C)C)C(=O)N[C@@H](CC(=O)O)C(=O)NC(C)(C)C(=O)N[C@@H](CCCNC(=N)N)C(=O)N[C@@H](C)C(=O)N[C@@H](C)C(=O)N[C@@H](CCC(N)=O)C(=O)N[C@@H](CC(=O)O)C(=O)N[C@@H](Cc1ccccc1)C(=O)N[C@H](C(=O)N[C@@H](CCC(N)=O)C(=O)N[C@@H](Cc1c[nH]c2ccccc12)C(=O)N[C@@H](CC(C)C)C(=O)N[C@@H](CCSC)C(=O)N[C@@H](CC(=O)O)C(=O)N[C@H](C(=O)O)[C@@H](C)O)C(C)C [Biotin-GCG]
Emax (GCGR [2]): 124%

Emax (GCGR [1]): 116%
SMILES: CCCCCCCCCCCCCCCC(=O)N[C@@H](CCC(=O)N[C@@H](CCC(=O)NCCCC[C@H](NC(=O)[C@H](CC(=O)O)NC(=O)[C@H](CO)NC(=O)[C@@H](NC(=O)[C@@H](O)Cc1ccccc1)[C@@H](C)O)C(=O)N[C@@H](CO)C(=O)N[C@@H](CCCCN)C(=O)N[C@@H](Cc1ccc(O)cc1)C(=O)N[C@@H](CC(C)C)C(=O)N[C@@H](CC(=O)O)C(=O)N[C@@H](CO)C(=O)N[C@@H](CCCNC(=N)N)C(=O)N[C@@H](CCCNC(=N)N)C(=O)N[C@@H](C)C(=O)N[C@@H](CCC(N)=O)C(=O)N[C@@H](CC(=O)O)C(=O)N[C@@H](Cc1ccccc1)C(=O)N[C@H](C(=O)N[C@@H](CCC(N)=O)C(=O)N[C@@H](Cc1c[nH]c2ccccc12)C(=O)N[C@@H](CC(C)C)C(=O)N[C@@H](CCSC)C(=O)N[C@@H](CC(=O)O)C(=O)N[C@H](C(N)=O)[C@@H](C)O)C(C)C)C(=O)O)C(=O)O [GCGR Antagonist] (H-[PhLac]TSDK([γGlu-γGlu-Palmitoyl])SKYLDSRRAQDFVQWLMDT-NH2)

Emax [3]: 130% | Emax (GLP-1R S444A): 127% | Emax (GLP-1R WT): 99% | Emax (GLP-1R S445A): 123% | Emax (GLP-1R S442A): 116% | increase in the percentage of phosphorylated GLP-1R proteoforms (GLP-1R_TEV_FLAG C-tail): 14.5%
SMILES: N#Cc1ccc(COc2cccc(C3CCN(Cc4nc5ccc(C(=O)O)cc5n4C[C@@H]4CCO4)CC3)n2)c(F)c1 [danuglipron]

Source: PMC12235690 (Journal of Proteome Research, 2025)
